Laboratory results reported in patent US20140017330A1, “Activated Nucleoside Analog Conjugates and Methods of Use Thereof” (BOARD OF REGENTS OF THE UNIVERSITY OF NEBRASKA, priority 2011, published 2014).
pIC50: −log10 of the molar value.

Legend:
[1] = comparator from the literature (Mikkola 2004); cited from earlier work
[2] = test system: human prostate adenocarcinoma PC-3 cells; assay: MTT cytotoxicity assay, PC-3; format: cell-based; conditions: 72-hour treatment
Description: (§1) Human breast carcinoma MCF-7, human hepatocellular carcinoma HepG2, and human prostate adenocarcinoma PC-3 cells were obtained from ATCC (Rockville, Md.). These cells were maintained in Dulbecco's Modified Eagle Medium (DMEM) supplemented with 10% fetal bovine serum (FBS), 1% L-glutamine, and 2% penicillin-streptomycin at 37° C. in a humidified atmosphere containing 5% CO2. […] These cells were maintained in DMEM/Nutrient mixture F-12 (DMEM/F12) with similar supplements and serum as above. […] They were grown in the presence of 2 μM gemcitabine. […] Galmarini (UFR Lyon-Sud, Oullins, France). The cells were grown in the presence of 0.5 μM cytarabine (araC). […]
(§2) Cytotoxicity of the polymeric conjugates was analyzed in different cancer cell lines by a standard MTT assay. […] Samples were incubated in full medium for 72 hours at 37° C., and the metabolic activity of each sample was determined by adding 20 μL of a 5 mg/mL of MTT stock solution in sterile PBS buffer to each well. […] Optical absorbance was measured at 560 nm using a model 680 microplate reader (BioRad, Hercules, Calif.) and cytotoxicity was expressed as a percentage of survived cells relative to nontreated control cells. All samples were analyzed by an average of eight measurements (means±SEM).

[3] = test system: human breast carcinoma MCF-7 cells; assay: MTT cytotoxicity assay, MCF-7; format: cell-based; conditions: MCF7, 72-hour treatment
Description: as §1, §2

[4] = test system: human hepatocellular carcinoma HepG2 cells; assay: MTT cytotoxicity assay, HepG2; format: cell-based; conditions: 72-hour treatment, read-out: IC50 values, Hep G2
Description: as §1, §2

[5] = test system: human breast carcinoma MDA-MB-231 cells; assay: MTT cytotoxicity assay, MDA-MB-231; format: cell-based; conditions: 72-hour treatment
Description: as §1, §2

[6] = test system: gemcitabine-resistant human follicular lymphoma RL7/G cells; assay: MTT cytotoxicity assay, RL7/G; format: cell-based; conditions: 72-hour treatment
Description: as §1, §2

[7] = test system: cytarabine-resistant human leukemic lymphoblast CEM/araC/8 cells; assay: MTT cytotoxicity assay, CEM/araC/8; format: cell-based; conditions: 72-hour treatment
Description: as §1, §2

Nc1ncnc2c1ncn2[C@@H]1O[C@H](COP(=O)(O)OP(=O)(O)OP(=O)(O)OP(=O)(O)OC[C@H]2O[C@@H](n3cnc4c(N)ncnc43)[C@H](O)[C@@H]2O)[C@@H](O)[C@H]1O [diadenosine-P1,P4-tetraphosphate]
drug release time [1]: 3 days

O=c1[nH]c(=O)n([C@H]2C[C@H](O)[C@@H](CO)O2)cc1F [Floxuridine (FdU), 5-fluoro-2′-deoxyuridine]
pIC50 [2]: 5.19 | pIC50 [3]: 1.91 | pIC50 [4]: 2.66 | pIC50 [5]: 4.85

Nc1ccn([C@@H]2O[C@H](CO)[C@@H](O)C2(F)F)c(=O)n1 [Gemcitabine (G), 2,2′-difluorocytidine]
pIC50 [6]: 1.72

Nc1ccn([C@@H]2O[C@H](CO)[C@@H](O)[C@@H]2O)c(=O)n1 [Cytarabine (araC), arabinosylcytosine]
pIC50 [7]: 2.91
